Laboratory results from patent publication US20240116880A1, “CERTAIN CHEMICAL ENTITIES, COMPOSITIONS, AND METHODS” (NeuPharma, Inc, priority 2020, published 2024).

Assay: Accelerated and long-term stability tests of Crystalline Form I
Format: physicochemical
Details: for Purity: HPLC
Experimental: X-ray powder diffraction (XRPD) patterns were obtained on a Shimadzu XRD-6000. A CuK source (=1.54056 angstrom) operating minimally at 40 kV and 30 mA scans each sample between 5 and 50 degrees 2-theta. The step size is 0.02 degrees 2-theta and the scan speed is 1 second per step.
Differential scanning calorimetry analysis was carried out on a TA Instrument DSC unit (METTLER DSC 3). Samples were heated in non-hermetic aluminum pans from ambient to 300° C. at 20 K/min with a nitrogen purge of 50 mL/min.
High-performance liquid chromatography (HPLC) was performed using the following instrument and/or conditions.
Example 8. Stability Tests of Crystalline Form I
Crystalline Form I was not changed after storage at 40° C./75% RH for 6 months, or storage at 25° C./60% RH for 6 months.

[1] = 25° C./60% RH (closed), 0 month
[2] = 25° C./60% RH (closed), 6 months
[3] = 40° C./75% RH (closed), 0 month
[4] = 40° C./75% RH (closed), 6 months

CCCS(=O)(=O)Nc1cc(F)c(F)c(C(=O)c2ccc3ncc(N4CCOCC4)nc3c2)c1F [Crystalline Form I, N-(2,4,5-trifluoro-3-(3-morpholinoquinoxaline-6-carbonyl)phenyl)propane-1-sulfonamide]
Appearance [1]: Yellow powder | DSC [1]: 186.56 °C | XRPD [1]: Form I | Purity [1]: 99.93% | Appearance [2]: Yellow powder | DSC [2]: 186.08 °C | XRPD [2]: Form I | Purity [2]: 99.92% | Appearance [3]: Yellow powder | DSC [3]: 186.56 °C | XRPD [3]: Form I | Purity [3]: 99.93% | Appearance [4]: Yellow powder | DSC [4]: 186.54 °C | XRPD [4]: Form I | Purity [4]: 99.92% | Change of crystalline form after storage (storage at 25° C./60% RH for 6 months): not changed | Change of crystalline form after storage (storage at 40° C./75% RH for 6 months): not changed
